Values of other authors in patent US8778869B2, “Tissue regeneration system” (Wisconsin Alumni Research Foundation, priority 2010, dated 2014).

Row | Molecule | concentration of optimal in vitro biological activity
1 | fibroblast growth factor-2 [FGF-2] | approximately 1 nM
2 | bone morphogenetic protein-2 (protein, listed as Homo sapiens) MVAGTRCLLALLLPQVLLGGAAGLVPELGRRKFAAASSGRPSSQPSDEVLSEFELRLLSMFGLKQRPTPSRDAVVPPYMLDLYRRHSGQPGSPAPDHRLERAASRANTVRSFHHEESLEELPETSGKTTRRFFFNLSSIPTEEFITSAELQVFREQMQDALGNNSSFHHRINIYEIIKPATANSKFPVTRLLDTRLVNQNASRWESFDVTPAVMRWTAQGHANHGFVVEVAHLEEKQGVSKRHVRISRSLHQDEHSWSQIRPLLVTFGHDGKGHPLHKREKRQAKHKQRKRLKSSCKRHPLYVDFSDVGWNDWIVAPPGYHAFYCHGECPFPLADHLNSTNHAIVQTLVNSVNSKIPKACCVPTELSAISMLYLDENEKVVLKNYQDMVVEGCGCR | approximately 1 nM
